The record followed here is patent US12612395B2, “Rocaglate derivatives and uses thereof” (TRUSTEES OF BOSTON UNIVERSITY, priority 2023, dated 2026).

The subject of this data set is GBM0308 non-CSCs. Put plainly: Dose-response killing of GBM non-CSCs (PI/Hoechst, Celigo cytometer). The data set is classed as cell-based. The conditions noted are these: GBM0308 non-CSCs; for Non-CSCs Max. observed efficacy (% dead cells): Table 1, up to 10 μM. An excerpt:
The inventors first evaluated a cohort of seven rocaglate translation inhibitors (1, 3-7, and 9, FIG. 1A and Table 1, compounds 2 and 8 were not tested due to unavailability). To assay for compounds that selectively affect GBM CSCs, the inventors employed the patient-derived tumor-initiating cell (TIC) cell line […] that forms neurospheres (consisting exclusively of tumor-initiating cells or CSCs) when cultured in neurobasal (NBE) medium. Upon exposure to serum and growth factor withdrawal, however, the cell line differentiates, acquires a flattened morphology, and forms a non-CSC population.^20 Thus, compounds can be tested in parallel to assess their effect on GBM CSCs vs. GBM non-CSCs as separate populations with a clean and robust response. This approach has been previously used to perform RNAi-based genetic screens to identify modulators of CSCs.^20 In this study, GBM0308 cells, cultured in stem cell conditions to form CSCs or in medium containing serum to induce differentiation into a non-CSC population, were treated in parallel with compounds at varying doses. Three days post-treatment, propidium iodide (PI) and Hoechst staining were performed and quantified using a Celigo image cytometer. Hoechst dye stained all […] nucleated cells, while PI exclusively stained dead cells. Cell viability and the percentage of cell death were then determined.
Cell Culture: Glioblastoma stem cell lines GBM0308, BT145, and BT112 were cultured in neurobasal (NBE medium) containing N-2 and B-27 supplements, EGF, bFGF, L-glutamine, and Penicillin-Streptomycin), as described previously.^19 Adherent GBM cells were cultured in serum-containing DMEM media (Invitrogen) supplemented with 10% fetal bovine serum (Corning Cellgro™). Cells were incubated at 37° C. and 5% CO2 to allow neurosphere formation. For seeding and subculturing, the neurospheres were gently trypsinized with 0.025% trypsin to form a single-cell suspension.
Dose-Response Testing in GBM Cells: Briefly, on day 1, cells were seeded in triplicate. For CSCs, 1500 cells/well were plated in a low attachment 96-well plate with NBE media and incubated for 3 days at 37° C. and 5% CO2 to allow the formation of neurospheres. For non-CSCs, 3000 cells/well were plated in a 96-well plate with DMEM media supplemented with 10% FBS. Similarly, the assay plates were also incubated for the same duration. Compound treatments started on day 4. Each compound was resuspended in DMSO and then diluted to different concentrations in media to a final concentration of DMSO less than 1%. The compounds were added at concentrations of 10, 3.3, 1.11, 0.37, 0.12, 0.041, 0.013, and 0.004 µM, respectively. DMSO-treated cells served as a control. After 72 h incubation with the compounds, fluorescent stains, propidium iodide, and Hoechst 33342 (Life Technologies, Carlsbad, CA), were used to stain the GBM cells to determine cell viability. A staining solution in 1×PBS was prepared by mixing PI and Hoechst 33342 to working concentrations of 2.5 μM and 20 μM, respectively. 20 μL of this staining solution was added per well, and plates were incubated at 37° C. and 5% CO2 for 60 min. After incubation, plates were read by Celigo imaging cytometer using an inbuilt Celigo application; Cell Viability (Dead+Total). For the viability measurement, the total number of neurospheres/cells and dead neurospheres/cells in each well were counted by the cytometer. The percentage of PI+ cells was normalized to DMSO and plotted against the drug concentration to calculate the EC50 with a four-parameter, variable-slope dose-response curve with an upper constraint of <100% dead cells and a lower constraint of =0% dead cells (GraphPad Prism v.10.0.0). For all dose response experiments, the experimental maximal efficacy (maximum observed % cell death) is reported. Relative EC50 values are reported for all compounds killing >50% of cells.

In the case of `CONC(=O)[C@H]1[C@@H](O)[C@@]2(O)c3c(OC)cc(OC)cc3O[C@@]2(c2ccc(OC)cc2)[C@@H]1c1ccccc1` [(−)-5, CR-1-31b, reference compound], the “Non-CSCs Max. observed efficacy (% dead cells)” value (72 h) is 22%.

In the case of `CONC(=O)[C@H]1[C@@H](O)[C@@]2(O)c3c(OC)cc(OC)cc3O[C@@]2(c2ccc(Br)cc2)[C@@H]1c1ccccc1` [(−)-7, SDS-1-021], the “Non-CSCs Max. observed efficacy (% dead cells)” value (72 h) is on record as 31%.

For `COc1cc(OC)c2c(c1)O[C@@]1(c3ccc(Br)cc3)[C@H](c3ccccc3)[C@@H](C(=O)NS(=O)(=O)N(C)C)[C@@H](O)[C@@]21O` [(−)-20, (1R,2R,3S,3aR,8bS)-3a-(4-bromophenyl)-N—(N,N-dimethylsulfamoyl)-1,8b-dihydroxy-6,8-dimethoxy-3-phenyl-2,3,3a,8b-tetrahydro-1H-cyclopenta[b]benzofuran-2-carboxamide], the “cytotoxic activity against non-CSCs, in words” value is “limited detectable effects”. For the same molecule, the Emax (Homo sapiens, Table 2, 72 h, highest tested concentration 10 μM, read-out: Non-CSCs Max. observed efficacy (% dead cells)) turned out to be 26%.
